Columns and labels:
[1] = target: HERG (Homo sapiens, UniProt Q12809); test: PDSP radioligand displacement binding; conditions: average of three independent trials
[2] = target: 5-HT5A (Homo sapiens, UniProt P47898); test: PDSP radioligand displacement binding; conditions: average of three independent trials
[3] = target: NET (Homo sapiens, UniProt P23975); test: PDSP radioligand displacement binding; conditions: average of three independent trials
[4] = target: T1, κOR (Homo sapiens, UniProt P41145); test: PathHunter β-arrestin-2 recruitment assay at the κOR; type: cell-based; conditions: FIG. 6
T1 construct: host or cells: CHO-K1
Source text: Cell Lines and Cell Culture. To perform the HitHunter cAMP accumulation assay, Chinese hamster ovary cells (CHO-K1) stably expressing human μ-opioid receptor (OPRM1, catalog no. 95-0107C2, DiscoverX, Fremont, CA, USA), K-opioid receptor (OPRK1, catalog no. 95-0088C2, DiscoverX, Fremont, CA, USA), or 6-opioid receptor (OPRD1, catalog no. 95-0108C2, DiscoverX, Fremont, CA, USA) were maintained at 80% confluence in F-12 media supplemented with 10% fetal bovine serum, 1% penicillin/streptomycin/L-glutamine, and 800 μg/mL G418. To perform the PathHunter β-arrestin-2 recruitment assay, U2OS-human κ opioid receptor (κOR) cells stably expressing the κOR and β-arrestin-2 (RRID:CVCL_LA97, DiscoverX, Fremont, CA, USA) were maintained in McCoy's 5A media supplemented with 10% FBS and containing 500 μg/mL geneticin and 250 μg/mL hygromycin. All cells were grown 37° C. under 5% CO2 in a humidified incubator under sterile conditions in T75 flasks. During passaging, cells were dislodged from the flask following a 3-5 min incubation with 0.25% trypsin or non-enzymatic detachment reagent and subcultivated at ratios of 1:10 (CHO) and 3:10 (U2OS).
PathHunter β-arrestin-2 Recruitment Assay. The R-arrestin-2 recruitment assay was performed using U2OS-human (κOR) PathHunter R-arrestin-2 cells (DiscoverX) as previously described.^77

[5] = target: T2, Alpha1B (Homo sapiens, UniProt P35368); test: PDSP radioligand displacement binding; conditions: average of three independent trials
T2 sequence (P35368 1-520): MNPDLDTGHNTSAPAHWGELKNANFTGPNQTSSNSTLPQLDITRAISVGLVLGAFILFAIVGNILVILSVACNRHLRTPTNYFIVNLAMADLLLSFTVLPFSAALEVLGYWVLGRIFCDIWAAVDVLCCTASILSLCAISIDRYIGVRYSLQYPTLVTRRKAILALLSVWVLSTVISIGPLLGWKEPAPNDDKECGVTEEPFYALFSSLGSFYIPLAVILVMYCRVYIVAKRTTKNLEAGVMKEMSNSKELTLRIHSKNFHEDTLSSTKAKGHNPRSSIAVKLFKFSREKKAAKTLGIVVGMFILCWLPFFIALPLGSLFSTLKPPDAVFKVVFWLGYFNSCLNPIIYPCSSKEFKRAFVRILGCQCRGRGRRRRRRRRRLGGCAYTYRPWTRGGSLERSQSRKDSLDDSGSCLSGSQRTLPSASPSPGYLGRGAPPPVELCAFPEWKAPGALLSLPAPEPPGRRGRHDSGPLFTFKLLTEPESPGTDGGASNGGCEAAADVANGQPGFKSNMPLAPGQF

[6] = target: Sigma 2; test: PDSP radioligand displacement binding; conditions: average of three independent trials
[7] = target: T3, μOR (Homo sapiens, UniProt P35372); test: cell-based; type: cell-based
T3 construct: host or cells: CHO-K1

[8] = target: 5-HT7A (Homo sapiens, UniProt P34969); test: PDSP radioligand displacement binding; conditions: average of three independent trials
[9] = target: T4, Alpha2A (Homo sapiens, UniProt P08913); test: PDSP radioligand displacement binding; conditions: average of three independent trials
T4 sequence (P08913 1-465): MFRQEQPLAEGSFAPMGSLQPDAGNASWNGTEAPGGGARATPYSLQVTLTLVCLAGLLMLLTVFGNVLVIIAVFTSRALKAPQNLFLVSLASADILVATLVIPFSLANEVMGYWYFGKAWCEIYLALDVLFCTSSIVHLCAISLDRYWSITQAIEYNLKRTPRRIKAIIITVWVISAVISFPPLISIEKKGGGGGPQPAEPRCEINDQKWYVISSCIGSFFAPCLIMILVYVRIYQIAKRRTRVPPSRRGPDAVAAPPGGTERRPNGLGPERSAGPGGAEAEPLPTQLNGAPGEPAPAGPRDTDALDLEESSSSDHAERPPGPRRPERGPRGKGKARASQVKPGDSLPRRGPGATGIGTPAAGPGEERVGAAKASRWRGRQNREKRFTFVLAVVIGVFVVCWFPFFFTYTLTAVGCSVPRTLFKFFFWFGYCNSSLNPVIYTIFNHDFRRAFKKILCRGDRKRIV

[10] = target: Alpha7 (Homo sapiens, UniProt P36544); test: PDSP radioligand displacement binding; conditions: average of three independent trials
[11] = target: T5, Alpha2B (Homo sapiens, UniProt P18089); test: PDSP radioligand displacement binding; conditions: average of three independent trials
T5 sequence (P18089 1-450): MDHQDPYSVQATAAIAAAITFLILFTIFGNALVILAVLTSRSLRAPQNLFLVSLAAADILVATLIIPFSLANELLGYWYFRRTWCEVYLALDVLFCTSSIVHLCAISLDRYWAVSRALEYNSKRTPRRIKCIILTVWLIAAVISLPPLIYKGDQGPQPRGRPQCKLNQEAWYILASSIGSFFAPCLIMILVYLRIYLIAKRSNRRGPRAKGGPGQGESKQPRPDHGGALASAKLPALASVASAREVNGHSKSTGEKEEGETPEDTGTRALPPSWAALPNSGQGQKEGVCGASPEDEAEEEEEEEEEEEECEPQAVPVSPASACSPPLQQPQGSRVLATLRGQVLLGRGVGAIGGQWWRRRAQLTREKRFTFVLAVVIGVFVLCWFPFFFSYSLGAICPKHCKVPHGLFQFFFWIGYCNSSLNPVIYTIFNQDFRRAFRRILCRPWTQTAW

T3 sequence (P35372 whole entry): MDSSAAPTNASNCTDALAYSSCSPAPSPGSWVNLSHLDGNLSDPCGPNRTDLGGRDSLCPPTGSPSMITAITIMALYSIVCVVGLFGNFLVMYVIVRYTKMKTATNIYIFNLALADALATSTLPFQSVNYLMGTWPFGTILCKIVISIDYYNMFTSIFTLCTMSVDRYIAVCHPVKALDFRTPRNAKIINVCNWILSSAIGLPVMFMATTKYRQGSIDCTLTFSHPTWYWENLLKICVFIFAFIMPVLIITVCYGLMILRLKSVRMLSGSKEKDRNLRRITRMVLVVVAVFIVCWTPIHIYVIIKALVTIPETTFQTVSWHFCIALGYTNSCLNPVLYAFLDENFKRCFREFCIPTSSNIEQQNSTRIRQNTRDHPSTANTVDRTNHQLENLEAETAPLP
T1 sequence (P41145 whole entry): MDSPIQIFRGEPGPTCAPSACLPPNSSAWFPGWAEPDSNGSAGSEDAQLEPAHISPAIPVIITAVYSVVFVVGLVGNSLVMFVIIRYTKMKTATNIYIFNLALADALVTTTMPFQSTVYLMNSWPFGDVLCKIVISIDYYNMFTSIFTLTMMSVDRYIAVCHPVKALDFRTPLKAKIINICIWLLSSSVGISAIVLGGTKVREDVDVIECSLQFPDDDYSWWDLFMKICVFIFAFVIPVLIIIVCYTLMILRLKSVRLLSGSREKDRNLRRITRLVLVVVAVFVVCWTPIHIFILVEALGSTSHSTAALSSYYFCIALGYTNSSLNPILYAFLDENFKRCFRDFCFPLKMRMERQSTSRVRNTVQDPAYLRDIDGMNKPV
5-HT5A, sequence (P47898 whole entry, species assumed): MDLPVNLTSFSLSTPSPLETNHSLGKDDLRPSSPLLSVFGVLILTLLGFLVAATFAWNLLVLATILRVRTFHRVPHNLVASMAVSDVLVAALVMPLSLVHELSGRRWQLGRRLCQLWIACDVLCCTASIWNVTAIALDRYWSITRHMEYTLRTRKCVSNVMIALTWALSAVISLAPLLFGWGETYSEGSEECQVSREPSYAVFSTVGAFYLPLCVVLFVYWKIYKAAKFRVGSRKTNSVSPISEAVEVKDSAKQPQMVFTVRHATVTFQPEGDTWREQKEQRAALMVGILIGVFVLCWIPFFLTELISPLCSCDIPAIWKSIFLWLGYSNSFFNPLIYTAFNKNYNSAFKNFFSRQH
NET, sequence (P23975 whole entry): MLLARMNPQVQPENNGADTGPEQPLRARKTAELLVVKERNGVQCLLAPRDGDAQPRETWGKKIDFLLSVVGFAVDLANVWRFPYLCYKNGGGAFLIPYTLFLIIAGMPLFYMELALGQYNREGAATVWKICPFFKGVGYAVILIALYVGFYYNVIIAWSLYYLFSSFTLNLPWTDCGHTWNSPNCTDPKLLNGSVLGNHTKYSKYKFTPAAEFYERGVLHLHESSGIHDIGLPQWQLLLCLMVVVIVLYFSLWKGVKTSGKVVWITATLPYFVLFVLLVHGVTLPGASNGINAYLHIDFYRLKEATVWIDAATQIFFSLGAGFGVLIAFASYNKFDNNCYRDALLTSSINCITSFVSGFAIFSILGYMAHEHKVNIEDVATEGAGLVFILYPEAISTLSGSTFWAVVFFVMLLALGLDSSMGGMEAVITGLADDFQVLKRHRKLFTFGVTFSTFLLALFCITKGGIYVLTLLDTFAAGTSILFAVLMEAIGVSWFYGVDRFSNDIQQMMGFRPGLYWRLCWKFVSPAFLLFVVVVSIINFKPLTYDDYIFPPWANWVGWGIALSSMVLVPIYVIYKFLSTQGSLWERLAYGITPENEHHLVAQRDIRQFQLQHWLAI
HERG, sequence (Q12809 whole entry): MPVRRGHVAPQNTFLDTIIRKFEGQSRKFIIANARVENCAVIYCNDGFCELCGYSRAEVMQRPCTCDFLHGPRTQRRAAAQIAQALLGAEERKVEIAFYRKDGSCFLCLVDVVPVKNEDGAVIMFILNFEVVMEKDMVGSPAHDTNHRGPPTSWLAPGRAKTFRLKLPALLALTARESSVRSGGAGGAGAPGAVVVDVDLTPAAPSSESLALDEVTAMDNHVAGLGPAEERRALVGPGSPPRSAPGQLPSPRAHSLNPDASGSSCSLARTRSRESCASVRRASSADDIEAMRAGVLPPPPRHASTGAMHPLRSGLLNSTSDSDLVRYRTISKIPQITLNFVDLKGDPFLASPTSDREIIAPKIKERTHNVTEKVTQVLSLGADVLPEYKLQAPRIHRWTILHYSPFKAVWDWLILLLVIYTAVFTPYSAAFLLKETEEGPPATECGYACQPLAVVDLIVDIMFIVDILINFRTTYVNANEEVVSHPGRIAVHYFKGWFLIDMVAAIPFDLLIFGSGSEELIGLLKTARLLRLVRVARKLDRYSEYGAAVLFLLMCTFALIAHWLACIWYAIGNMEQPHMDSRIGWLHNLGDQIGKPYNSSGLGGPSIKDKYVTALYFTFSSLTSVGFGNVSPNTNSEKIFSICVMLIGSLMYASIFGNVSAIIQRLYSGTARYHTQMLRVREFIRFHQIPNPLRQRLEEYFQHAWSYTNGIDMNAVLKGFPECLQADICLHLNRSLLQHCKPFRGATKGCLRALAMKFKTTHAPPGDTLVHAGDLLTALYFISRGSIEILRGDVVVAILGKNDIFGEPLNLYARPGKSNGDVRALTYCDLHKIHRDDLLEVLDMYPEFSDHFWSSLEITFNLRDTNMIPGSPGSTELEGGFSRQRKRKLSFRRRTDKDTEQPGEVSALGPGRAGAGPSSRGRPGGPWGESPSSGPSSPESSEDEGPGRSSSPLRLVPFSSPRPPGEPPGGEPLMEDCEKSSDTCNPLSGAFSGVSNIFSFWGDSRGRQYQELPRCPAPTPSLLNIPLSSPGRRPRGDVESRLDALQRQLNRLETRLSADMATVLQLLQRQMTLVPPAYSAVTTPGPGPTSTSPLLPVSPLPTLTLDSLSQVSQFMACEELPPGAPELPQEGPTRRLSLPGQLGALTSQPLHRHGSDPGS
5-HT7A, sequence (P34969 1-445 isoform P34969-2): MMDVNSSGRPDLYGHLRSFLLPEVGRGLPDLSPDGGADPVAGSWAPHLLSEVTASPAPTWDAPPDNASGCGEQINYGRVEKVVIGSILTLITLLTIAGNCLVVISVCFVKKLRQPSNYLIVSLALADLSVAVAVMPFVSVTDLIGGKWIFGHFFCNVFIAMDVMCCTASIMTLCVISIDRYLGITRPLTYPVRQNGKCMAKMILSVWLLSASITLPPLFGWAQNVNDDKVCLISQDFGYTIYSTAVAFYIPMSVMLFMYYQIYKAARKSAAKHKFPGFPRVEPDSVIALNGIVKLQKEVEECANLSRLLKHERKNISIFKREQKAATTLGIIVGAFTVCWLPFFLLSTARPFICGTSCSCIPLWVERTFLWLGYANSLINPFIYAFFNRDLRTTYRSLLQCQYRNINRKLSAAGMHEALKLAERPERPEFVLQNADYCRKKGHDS
Alpha7, sequence (P36544 23-502): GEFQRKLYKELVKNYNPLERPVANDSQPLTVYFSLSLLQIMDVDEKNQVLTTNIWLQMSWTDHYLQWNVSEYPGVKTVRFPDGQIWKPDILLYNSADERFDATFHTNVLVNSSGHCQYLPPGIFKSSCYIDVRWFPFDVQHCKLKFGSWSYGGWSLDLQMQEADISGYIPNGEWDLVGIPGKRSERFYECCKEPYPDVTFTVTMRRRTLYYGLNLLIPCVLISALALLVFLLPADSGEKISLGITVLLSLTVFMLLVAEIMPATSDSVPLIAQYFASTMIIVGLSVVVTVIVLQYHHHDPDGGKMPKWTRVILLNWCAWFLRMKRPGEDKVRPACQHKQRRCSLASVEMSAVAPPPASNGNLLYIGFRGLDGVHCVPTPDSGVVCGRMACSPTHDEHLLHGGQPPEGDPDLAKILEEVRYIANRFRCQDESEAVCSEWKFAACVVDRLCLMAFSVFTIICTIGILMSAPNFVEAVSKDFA

SMILES | Ki [1] | Ki [2] | Ki (nM) at NET [3] | βArr2 recruitment compared with U50,488 [4] | Ki [5] | Ki [6] | agonist activity at the μOR [7] | Ki [8] | Ki [9] | Ki [10] | Ki [11] | Ki [3] | μOR cAMP inhibition Emax ± SEM (%) [7] | μOR cAMP inhibition pEC50 ± SEM [7] | EC50 ([7]; read-out: μOR cAMP inhibition EC50) | Ki (nM) at Alpha2B [11]
C/C=C1/CN2CC[C@]34C(=C(C(=O)OC)[C@H]1C[C@H]23)Nc1ccc(Br)cc14 [Compound 2, 10-Bromoakuammicine] | 1340 nM | 721 nM | — (“—” indicates compound produced less than 50% displacement of radioligand in primary binding screen at 10 μM.) | more efficacious than the reference compound U50,488 | 2880 nM | 2620 nM | only weakly activated the μOR | 1520 nM | > 10000 nM | 7000 nM | 1250 nM | – | – | – | – | –
C/C=C1/CN2CC[C@]34C(=C(C(=O)OC)[C@H]1C[C@H]23)Nc1ccc(I)cc14 [Compound 3, 10-Iodoakuammicine] | 1100 nM | 829 nM | – | more efficacious than the reference compound U50,488 | 2020 nM | 2220 nM | only weakly activated the μOR | 1380 nM | 732 nM | 5490 nM | – | 3440 nM | <10% | 4.4 ± 1.9 | 41000 nM | — (“—” indicates compound produced less than 50% displacement of radioligand in primary binding screen at 10 μM.)

— patent US20250051332A1 (priority 2022, published 2025)
